Key:
Conditions in all cases: 72 h
BV-173 = test system: BV-173
Procedure, shortened: (§1)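 The IC50 was read from log-logistic dose–response fits. Fifteen myeloid leukaemia lines were exposed for 72 h at 37 °C with 5% CO2 to five tenfold doses from 1 to 10,000 nM in duplicate. ATP luminescence, normalised to vehicle and to a 10 µM positive control, was fitted with four parameters.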

HEL [1] = test system: HEL
Procedure, shortened: as §1

HL-60 [2] = test system: HL-60
Procedure, shortened: as §1

K-562 [3] = test system: K-562
Procedure, shortened: as §1

KCL-22 [4] = test system: KCL-22
Procedure, shortened: as §1

KG-1 [5] = test system: KG-1
Procedure, shortened: as §1

KU-812 [6] = test system: KU-812
Procedure, shortened: as §1

LAMA-84 = test system: LAMA-84
Procedure, shortened: as §1

ML-2 [7] = test system: ML-2
Procedure, shortened: as §1

MOLM-13 [8] = test system: MOLM-13
Procedure, shortened: as §1

MV4-11 [9] = test system: MV4-11
Procedure, shortened: as §1

Mono-Mac-6 = test system: Mono-Mac-6
Procedure, shortened: as §1

NOMO-1 [10] = test system: NOMO-1
Procedure, shortened: as §1

SHI-1 [11] = test system: SHI-1
Procedure, shortened: as §1

THP-1 [12] = test system: THP-1
Procedure, shortened: as §1

HL-60 [13] = test: cell viability (% survival relative to DMSO control); higher = less cytotoxic
Procedure, shortened: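 In 384-well plates, the full library was rescreened in duplicate on HL-60 cells in RPMI 1640 with 10% FBS, at 1–10,000 nM in five tenfold concentrations, for 72 h at 37 °C, 5% CO2. Each run also held DMSO or 100 nM of one of three metabolic inhibitors. Viability was measured by CellTiter-Glo and normalised to DMSO wells and to wells with proteasome inhibitor, present at 10 μM. Any area under the curve comes from four-parameter log-logistic fitting with drc and PharmacoGx.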

HEL [14] = test: cell viability (% survival relative to DMSO control, bortezomib = 0%); higher = less cytotoxic
Procedure, shortened: (§2)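 Percent survival is reported as the mean of duplicate wells. Cells from 10 AML and 5 CML lines were plated in 384-well plates containing compounds at 1, 10, 100, 1000 or 10000 nM and kept for 72 h at 37 °C in 5% CO2. Readout used CellTiter-Glo luminescence, scaled so that vehicle equals 100% and a 10 µM positive control equals 0%.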

HL-60 [15] = test: as above
Procedure, shortened: as §2

K-562 [16] = test: as above
Procedure, shortened: as §2

KCL-22 [17] = test: as above
Procedure, shortened: as §2

KG-1 [18] = test: as above
Procedure, shortened: as §2

KU-812 [19] = test: as above
Procedure, shortened: as §2

ML-2 [20] = test: as above
Procedure, shortened: as §2

MOLM-13 [21] = test: as above
Procedure, shortened: as §2

MV4-11 [22] = test: as above
Procedure, shortened: as §2

NOMO-1 [23] = test: as above
Procedure, shortened: as §2

SHI-1 [24] = test: as above
Procedure, shortened: as §2

THP-1 [25] = test: as above
Procedure, shortened: as §2

CC(C)CC(=O)N[C@H](C(=O)N[C@H](C(=O)N[C@@H](CC(C)C)[C@@H](O)CC(=O)N[C@@H](C)C(=O)N[C@@H](CC(C)C)[C@@H](O)CC(=O)O)C(C)C)C(C)C [Pepstatin A]
Conditions	IC50 (cell viability) [µM]
BV-173	> 10
HEL [1]	> 10
HL-60 [2]	> 10
K-562 [3]	> 10
KCL-22 [4]	> 10
KG-1 [5]	> 10
KU-812 [6]	> 10
LAMA-84	> 10
ML-2 [7]	> 10
MOLM-13 [8]	> 10
MV4-11 [9]	> 10
Mono-Mac-6	> 10
NOMO-1 [10]	> 10
SHI-1 [11]	> 10
THP-1 [12]	> 10

cell viability [%], HL-60 [13]
Conditions	0.001 µM	0.01 µM	0.1 µM	1 µM	10 µM
co-treatment: AZD3965 100 nM	104	107	103	102	102
co-treatment: DMSO vehicle	98.3	101	98.4	98.35	99.6
co-treatment: GSK2194069 100 nM	100	108	103	103	99.9
co-treatment: pictilisib 100 nM	99.8	117	98.8	89.9	107

cell viability [%]
Conditions	1 nM	10 nM	100 nM	1000 nM	10000 nM
HEL [14]	98.8	88.3	95.8	105	95.3
HL-60 [15]	99.7	73.7	111	144	84.6
K-562 [16]	95.1	85.5	96.9	101	87.9
KCL-22 [17]	97.4	74.5	101	101	98.7
KG-1 [18]	99.1	77.5	96.8	90.7	93.9
KU-812 [19]	102	101	96.8	111	95.9
ML-2 [20]	96.5	84.5	105	106	91.8
MOLM-13 [21]	109	93.8	109	126	86.5
MV4-11 [22]	87.7	77.9	90	92.3	81.8
NOMO-1 [23]	98.3	86.8	106	104	102
SHI-1 [24]	93	87.5	111	105	105
THP-1 [25]	96.3	87.1	103	96.1	97

Cc1cccc(Nc2cc(Cl)nc(SCC(=O)O)n2)c1C [Pirinixic acid]
Conditions	IC50 (cell viability) [µM]
BV-173	> 10
HEL [1]	> 10
HL-60 [2]	> 10
K-562 [3]	> 10
KCL-22 [4]	> 10
KG-1 [5]	> 10
KU-812 [6]	> 10
LAMA-84	> 10
ML-2 [7]	> 10
MOLM-13 [8]	> 10
MV4-11 [9]	> 10
Mono-Mac-6	> 10
NOMO-1 [10]	> 10
SHI-1 [11]	> 10
THP-1 [12]	> 10

cell viability [%], HL-60 [13]
Conditions	0.001 µM	0.01 µM	0.1 µM	1 µM	10 µM
co-treatment: AZD3965 100 nM	98.81	99	96.2	99.2	98.02
co-treatment: DMSO vehicle	97.46	94.5	96.3	100.4	96.4
co-treatment: GSK2194069 100 nM	70.6	89.6	94.6	99.1	77.3
co-treatment: pictilisib 100 nM	96.5	80.8	91.1	102	96.7

cell viability [%]
Conditions	1 nM	10 nM	100 nM	1000 nM	10000 nM
HEL [14]	84	100	109	104	101
HL-60 [15]	97.2	101	116	93.8	98.2
K-562 [16]	99.8	92.3	102	94.5	90.7
KCL-22 [17]	86.5	92.5	100	106	101
KG-1 [18]	99	93.1	101	98.8	107
KU-812 [19]	97.2	97.6	102	96.4	97.3
ML-2 [20]	103	103	105	105	102
MOLM-13 [21]	106	102	87.1	111	84.6
MV4-11 [22]	94.5	90.7	102	99.3	99.8
NOMO-1 [23]	106	102	102	90.5	96.8
SHI-1 [24]	98.5	97	91.8	94.4	82.8
THP-1 [25]	105	97.1	101	99.5	102

C[C@]12C=CC(=O)C=C1CC[C@@H]1[C@@H]2[C@@H](O)C[C@@]2(C)[C@H]1CC[C@]2(O)C(=O)CO [Prednisolone]
Conditions	IC50 (cell viability) [µM]
BV-173	0.0525
HEL [1]	> 10
HL-60 [2]	> 10
K-562 [3]	> 10
KCL-22 [4]	0.524
KG-1 [5]	> 10
KU-812 [6]	> 10
LAMA-84	> 10
ML-2 [7]	> 10
MOLM-13 [8]	> 10
MV4-11 [9]	> 10
Mono-Mac-6	> 10
NOMO-1 [10]	> 10
SHI-1 [11]	> 10
THP-1 [12]	> 10

cell viability [%], HL-60 [13]
Conditions	0.001 µM	0.01 µM	0.1 µM	1 µM	10 µM
co-treatment: AZD3965 100 nM	82.4	96.7	103	103	96.2
co-treatment: DMSO vehicle	95.9	104	100	103	101.5
co-treatment: GSK2194069 100 nM	94.8	101	98.4	101	100
co-treatment: pictilisib 100 nM	90	92.8	99.1	105.5	95.8

cell viability [%]
Conditions	1 nM	10 nM	100 nM	1000 nM	10000 nM
HEL [14]	105	114	109	109	105
HL-60 [15]	93.2	93.5	104	114	116
K-562 [16]	112	88.7	104	99	92.6
KCL-22 [17]	94.2	111	82.5	45.4	43
KG-1 [18]	115	105	87.7	91.3	71.4
KU-812 [19]	87.2	104	99.8	124	112
ML-2 [20]	91.5	104	115	114	104
MOLM-13 [21]	94.3	96	118	106	109
MV4-11 [22]	95.2	110	143	142	107
NOMO-1 [23]	93.3	103	109	88.7	87.3
SHI-1 [24]	97.7	95.7	97.9	67.6	71.9
THP-1 [25]	92	96.4	106	108	102

C=CCN(C)CCCCCCOc1ccc(C(=O)c2ccc(Br)cc2)c(F)c1.O=C(O)/C=C/C(=O)O [Ro 48-8071 fumarate]
Conditions	IC50 (cell viability) [µM]
BV-173	1.79
HEL [1]	> 10
HL-60 [2]	5.92
K-562 [3]	2.06
KCL-22 [4]	> 10
KG-1 [5]	6.11
KU-812 [6]	9.97
LAMA-84	8.49
ML-2 [7]	> 10
MOLM-13 [8]	> 10
MV4-11 [9]	5.95
Mono-Mac-6	> 10
NOMO-1 [10]	> 10
SHI-1 [11]	> 10
THP-1 [12]	> 10

cell viability [%], HL-60 [13]
Conditions	0.001 µM	0.01 µM	0.1 µM	1 µM	10 µM
co-treatment: AZD3965 100 nM	99.39	92.3	103	94.9	44.1
co-treatment: DMSO vehicle	99.1	86.3	107	102	75.5
co-treatment: GSK2194069 100 nM	103	68.3	101	104	53
co-treatment: pictilisib 100 nM	113	93.6	99.37	84.2	38.3

cell viability [%]
Conditions	1 nM	10 nM	100 nM	1000 nM	10000 nM
HEL [14]	112	102	102	109	86.7
HL-60 [15]	115	88.4	84.3	98.8	24.7
K-562 [16]	87	104	102	82.2	19.6
KCL-22 [17]	99.6	98.6	96.3	87.4	77.5
KG-1 [18]	110	101	78.5	80.7	52.3
KU-812 [19]	90.2	92.4	76.2	80.7	43.3
ML-2 [20]	106	98.5	106	96.4	68.9
MOLM-13 [21]	132	113	88.9	89.1	62.2
MV4-11 [22]	91.5	114	84.4	83.4	50.6
NOMO-1 [23]	104	97	98.1	105	92.7
SHI-1 [24]	103	100	101	105	58.5
THP-1 [25]	102	91.7	105	101	80.3

CN(CCOc1ccc(Cc2sc(O)nc2O)cc1)c1ccccn1 [Rosiglitazone]
Conditions	IC50 (cell viability) [µM]
BV-173	> 10
HEL [1]	> 10
HL-60 [2]	> 10
K-562 [3]	> 10
KCL-22 [4]	> 10
KG-1 [5]	> 10
KU-812 [6]	> 10
LAMA-84	> 10
ML-2 [7]	> 10
MOLM-13 [8]	> 10
MV4-11 [9]	> 10
Mono-Mac-6	0.0852
NOMO-1 [10]	> 10
SHI-1 [11]	> 10
THP-1 [12]	> 10

cell viability [%], HL-60 [13]
Conditions	0.001 µM	0.01 µM	0.1 µM	1 µM	10 µM
co-treatment: AZD3965 100 nM	104.4	105	100	105	102
co-treatment: DMSO vehicle	102.4	102	102	102.5	99.9
co-treatment: GSK2194069 100 nM	97.7	105	98.5	105	92.5
co-treatment: pictilisib 100 nM	98.9	102	96.3	98.3	89.5

cell viability [%]
Conditions	1 nM	10 nM	100 nM	1000 nM	10000 nM
HEL [14]	110	110	113	110	91.9
HL-60 [15]	97.8	111	107	127	168
K-562 [16]	96.6	109	98.5	98.7	85.4
KCL-22 [17]	96.4	113	110	94.2	102
KG-1 [18]	91.4	110	94.3	101	91.2
KU-812 [19]	98.9	111	92.5	95.4	90.3
ML-2 [20]	106	108	95.6	120	115
MOLM-13 [21]	107	115	118	130	122
MV4-11 [22]	107	105	105	95	93.5
NOMO-1 [23]	109	107	97.8	105	102
SHI-1 [24]	102	123	111	116	103
THP-1 [25]	101	101	88.6	90.6	93.5

Reference: the supplement of paper PMC8671470
